Assays:
LNCaP 104-S cells = experiment: Proliferation of LNCaP 104-S cells in culture; assay type: cell-based, human; conditions: 0.1 nM R1881 vs androgen-depleted media
Procedure: Androgen-dependent LNCaP 104-S (passage 37) and androgen-independent LNCaP 104-R±sublines were isolated as described previously (Kokontis et al., 1994). The characteristics of these cells in vitro were confirmed before injection into nude mice. […] LNCaP 104-R2 cells grew in charcoal-treated media without additional androgen. Their proliferation was not stimulated but was repressed by 0.1 nM R1881. LNCaP 104-S cells were maintained in DMEM (Gibco) supplemented with 1 nM 5α-DHT and 10% FBS (Summit Biotechnology) and LNCaP 104-R2 cells were maintained in DMEM supplemented with 10% FBS treated with charcoal to remove steroid (Kokontis et al., 1994). PC-3 and MCF-7 cell lines were obtained from the American Type Culture Collection (Rockville, Md.), and were maintained in DMEM supplemented with 10% FBS.

[1] = Biological effects of TP implants in nude mice (serum testosterone, seminal vesicle weight, body weight); assay type: in vivo, BALB/c athymic (nude) mice; conditions: 4th week after androgen implantation
From the text: (§1) BALB/c athymic (nude) male (LNCaP, PC-3 cell lines) and female (MCF-7 cell line) mice (Taconic Inc., Germantown, N.Y.), 5 to 7 weeks-old, were used. Mice were housed in a pathogen-free environment, four to five mice per cage. Cages (filter top), bedding and water were autoclaved before use. Feed was irradiated Pico Lab Mouse Chow 20 5058 (Purina). All procedures involving animals were approved by the University of Chicago Institutional Animal Care and Use Committee. For the tumor growth studies, 10^6 cells in 0.25 ml of culture medium were mixed with 0.25 ml of Matrigel™ (Collaborative Research, Bedford, Mass.) and were injected subcutaneously into one or both flanks of the mice as described previously (Liao et al., 1995). Tumor size was measured weekly and tumor volume was calculated using the formula L×W×H×0.52 (Janek and Hartman, 1975). Bilateral orchiectomy and subcutaneous implantation or removal of pellets were performed under Metofane anesthesia. Blood samples were obtained by heart puncture or from the orbital plexus while mice were under anesthesia and analyzed for testosterone levels by radioimmunoassay or PSA levels by dual-site reactive enzymatic immunoassay (Tandem®-E PSA, Hybritech, San Diego, Calif.). […] All numerical data are expressed as the average of the values obtained from 4 to 6 tumors and the standard error. […]

LNCaP 104-R2 tumors [2] = experiment: Growth of LNCaP 104-R2 tumors in castrated male nude mice; assay type: in vivo, BALB/c athymic (nude) mice
LNCaP 104-S tumors = experiment: Growth of LNCaP 104-S tumors in nude mice; assay type: in vivo, BALB/c athymic (nude) mice; conditions: TP implanted at the time of castration; from 299±27 (SE) mm^3; ±SE
MCF-7 tumors = experiment: Growth of MCF-7 tumors in female nude mice; assay type: in vivo, BALB/c athymic (nude) mice
LNCaP 104-R2 tumors [3] = experiment: Expression of AR, c-myc and PSA by LNCaP 104-R2 tumors (ribonuclease protection assay, serum PSA immunoassay); assay type: in vivo, BALB/c athymic (nude) mice; conditions: after 1 week of TP treatment
From the text: as §1

PC-3 tumors = experiment: Growth of PC-3 tumors in nude mice; assay type: in vivo, BALB/c athymic (nude) mice

Row | Structure (SMILES) | increase of proliferation of LNCaP 104-S cells (LNCaP 104-S cells) | body weight of nude mice [1] | increase of seminal vesicle weight ([1]; vs castrates without TP) | LNCaP 104-R2 tumor size within 4 weeks after removal of TP (LNCaP 104-R2 tumors [2]; TP implanted at 4th week, removed at 7th week, regrew from 96±26 (SE) mm^3) [mm^3] | LNCaP 104-R2 tumor size four weeks after TP implantation (LNCaP 104-R2 tumors [2]; TP implanted at 7th week, from 884±64 (SE) mm^3) [mm^3] | LNCaP 104-S tumor size 4 weeks after castration with TP implant (LNCaP 104-S tumors) [mm^3] | effect on growth of MCF-7 tumors (MCF-7 tumors) | increase of serum PSA (LNCaP 104-R2 tumors [3]) | increase of the level of PSA mRNA in tumor samples (LNCaP 104-R2 tumors [3]) | effect on growth of AR negative PC-3 tumors (PC-3 tumors)
1 | C[C@]1(O)CC[C@H]2[C@@H]3CCC4=CC(=O)CCC4=C3C=C[C@@]21C [R1881, 17 β-hydroxy-17 α-methyl-estra-4,9,11-trien-3-one] | 10-13 fold |  |  |  |  |  |  |  |  | 
2 | CCC(=O)O[C@H]1CC[C@H]2[C@@H]3CCC4=CC(=O)CC[C@]4(C)[C@H]3CC[C@]12C [TP, testosterone propionate] |  | no loss | about 10 times | 641±157 | 208±33 | 965±166 | not affected | more than 10 fold | more than 10 fold | did not affect

From patent publication US6696484B2, “Method and compositions for regulation of 5-alpha reductase activity” (University of Chicago Office of Technology and Intellectual …, priority 1997, dated 2004)
